We go through 53 compounds from ChEMBL document CHEMBL1201862, “PubChem BioAssay data set” (2004).

Holding throughout (test): inhibition of tumour cell growth, NCI panel, 48 h
For assay [1], the system named is BT-549.
The subject of assay [2] is Hs-578T.
The test system of assay [3] is MCF7.
Assay [4] has as its system DMS-273.
The subject of assay [5] is SNB-78.
The subject of assay [6] is HOP-18.
The subject of assay [7] is DLD-1.

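Cultured in 96-well plates, cells were exposed to test compound for 48 hours across five concentrations. GI50: concentration for 50% inhibition of growth.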 Active and inactive are the calls of the source. Cut-off read from the data, not from the text of the source: active = GI50 up to about 1.1 µM and inactive = higher.

Consider `NC(CC1=CS(=O)(=O)c2ccc(Cl)cc21)C(=O)O` (stereo not given), for which the GI50 in assay [1] was > 100 µM (inactive); in assay [2], 70.5 µM (inactive); in assay [3], 92.3 µM (inactive).

As for `CCOC(=O)c1ccc(N2C(=O)/C(=C\OC)c3ccccc3C2=O)cc1`, the GI50 in assay [4] is 33.1 µM (inactive); in assay [5], 43.7 µM (inactive).

Take `O=[N+]([O-])C(=C1NCCN1)/C(Cl)=C(/Cl)N1CCOCC1`: the GI50 in assay [1], in assay [2] and in assay [3] was > 100 µM (inactive) each time.

On to `CCN(CC)C(=O)CCCCCCCCC1CO1` (stereo not given), for which the GI50 in assay [2] and in assay [3] was > 100 µM (inactive) throughout.

Consider `C/C(=N\Nc1nc2ccccc2s1)c1cccc[n+]1[O-]`, for which the results for the GI50 in assay [1], in assay [2] and in assay [3] were > 100 µM (inactive), > 100 µM (inactive) and 23.2 µM (inactive), respectively.

Turning to `CCOC(=O)c1cc2c(OC)cc(OC)cc2oc1=O`, the GI50 is 76 µM (inactive) in assay [1], 45.2 µM (inactive) in assay [2] and > 100 µM (inactive) in assay [3].

For the compound `CCOC(=O)COc1ccc(/C=C/C(=O)c2ccc(OC)cc2)cc1`, the GI50 in assay [1] is 28.5 µM (inactive); in assay [2], 25.9 µM (inactive); in assay [3], 30.7 µM (inactive).

For the compound `Nc1ccc(C(=O)O)cc1.Nc1nc(N)c2nc[nH]c2n1`, the GI50 was 78 µM (inactive) in assay [1], > 100 µM (inactive) in assay [2] and 3.97 µM (inactive) in assay [3].

For `COc1ccc(Nc2nc(NNC(=O)Cc3ccccc3)nc(NNC(=O)c3ccncc3)n2)cc1`, the GI50 in assay [1] and in assay [3] was > 10 µM (inactive) throughout.

On to `N#Cc1nc(-c2cccc(-c3nc(C#N)c(N)o3)n2)oc1N`, for which the GI50 in assay [2] and in assay [3] was > 100 µM (inactive) in each case.

Turning to `O=C(O)CCSc1ncnc2[nH]cnc12`, the GI50 in assay [1], in assay [2] and in assay [3] was > 100 µM (inactive) each time.

As for `Cc1ccc(S(=O)(=O)OC2=C/C(=N\c3onc(C)c3C)c3ccccc3C2=O)cc1`, the GI50 in assay [1] was 33.7 µM (inactive); in assay [2] it was 38.5 µM (inactive); in assay [3], 17.3 µM (inactive).

As for `Cc1ccc(/C=N/Nc2cnccn2)s1`, the GI50 in assay [1] is > 100 µM (inactive); in assay [2], > 100 µM (inactive); in assay [3], 17.4 µM (inactive).

With `CC(=O)O[C@H]1CC[C@@]2(C)C(=CC[C@@H]3[C@@H]2CC[C@]2(C)c4c(cc(C#N)c(=N)n4C(C)=O)C[C@@H]32)C1`, the GI50 in assay [1] is 15.4 µM (inactive); in assay [2], 25.5 µM (inactive); in assay [3] it was 22.3 µM (inactive).

Take `O=C(O)[C@@]1(Cc2ccc(O)cc2)C[C@@H]2Cc3ccccc3N2N1`: the GI50 in assay [1], in assay [2] and in assay [3] was > 100 µM (inactive) throughout.

Regarding `N#Cc1nc(-c2cccs2)oc1N`, the GI50 in assay [1] is > 100 µM (inactive); in assay [2], > 100 µM (inactive); in assay [3], 83.2 µM (inactive).

Consider `CC(C)(C)[Si](C)(C)OCC1C=CC(n2cnc3c(N)ncnc32)O1` (stereo not given), for which the GI50 was 24.7 µM (inactive) in assay [1], 47.2 µM (inactive) in assay [2] and 30.1 µM (inactive) in assay [3].

Turning to `CN1C2CCC1CN(CCOC(c1ccc(F)cc1)c1ccc(F)cc1)C2`, the GI50 in assay [1] is 43.4 µM (inactive); in assay [2], 42.7 µM (inactive).

With `CCOC(=O)N/N=C(/N)Cc1ccc(Cl)cc1`, the GI50 in assay [1] and in assay [3] was > 100 µM (inactive) throughout.

For the compound `O=c1c2cc(I)ccc2nc(SCc2nncs2)n1Cc1ccccc1`, the GI50 in assay [1] is > 100 µM (inactive); in assay [2], 16.3 µM (inactive); in assay [3], 35.6 µM (inactive).

`O=C(O)C1C2C=CC(O2)C1C(=O)Nc1ncccn1` (stereo not given): the GI50 in assay [1], in assay [2] and in assay [3] was > 100 µM (inactive) in each case.

In the case of `Clc1nc(NC23CC4CC(CC(C4)C2)C3)nc(NC23CC4CC(CC(C4)C2)C3)n1`, the GI50 was > 61.4 µM (inactive) in assay [1], 25 µM (inactive) in assay [2] and 12.6 µM (inactive) in assay [3].

For the compound `COC(=O)C1CCC(=S)N1C(=O)OCc1ccccc1` (stereo not given), the GI50 is > 100 µM (inactive) in assay [1], 49.4 µM (inactive) in assay [2] and 88.3 µM (inactive) in assay [3].

In the case of `COc1ccc(N2C(=O)CC(Cl)C2=O)cc1` (stereo not given), the figures for the GI50 in assay [1], in assay [2] and in assay [3] were > 100 µM (inactive), > 100 µM (inactive) and 60.1 µM (inactive), respectively.

With `COc1ccc(C2SCC(=O)N2NC(=O)C(C)Oc2ccccc2C)cc1` (stereo not given), the GI50 was > 100 µM (inactive) in assay [1], > 100 µM (inactive) in assay [2] and 54.1 µM (inactive) in assay [3].

Regarding `C[C@]12CC[C@H]3[C@@H](CC[C@]4(O)C[C@@H](O)CC[C@]34CO)[C@@]1(O)CC[C@@H]2C1=CC(=O)OC1` [STROPHANTHIDOL], the GI50 was 1.51 µM (inactive) in assay [1] and 1.46 µM (inactive) in assay [2].

For the compound `O=S1(=O)c2ccccc2Oc2ccc(C(/C=N/O)=N/O)cc21`, in assay [3], the GI50 is 26.5 µM (inactive).

With `O=C(CCl)Nc1ccc(-c2nc3ccccc3s2)cc1`, the GI50 in assay [1] was 1.6 µM (inactive); in assay [2] it was 5.96 µM (inactive); in assay [3], 0.184 µM (active).

On to `Nc1nc(Cl)cc(NCC2(CO)CCCC2)n1`, for which the GI50 in assay [1] is > 100 µM (inactive); in assay [2], > 100 µM (inactive); in assay [3] it was 75.2 µM (inactive).

For `Cc1cccc(C(C)O)n1` (stereo not given), the GI50 in assay [1], in assay [2] and in assay [3] was > 100 µM (inactive) in each case.

Take `CC[C@@H]1CN2CCC1C[C@@H]2C(O)c1ccnc2ccc(OCCN3CCN(CCOc4ccc5nccc(C(O)[C@@H]6C[C@@H]7CCN6C[C@@H]7CC)c5c4)CC3)cc12` (stereo not given in full): the GI50 in assay [1] is 19.1 µM (inactive); in assay [2] it was 15.3 µM (inactive); in assay [3], 15.5 µM (inactive).

In the case of `C=C1C[C@@H](O)[C@@H](Br)C(C)(C)[C@]12CCC(C)(Br)C(Cl)C2` (stereo not given in full), the GI50 in assay [1], in assay [2] and in assay [3] was > 50 µM (inactive) each time.

Turning to `N#Cc1c(-c2nc3ccccc3s2)c(=O)oc2cc(O)ccc12`, the GI50 in assay [1] is 16.7 µM (inactive); in assay [2], 20 µM (inactive); in assay [3], 34.5 µM (inactive).

Regarding `Clc1nc2n(c1/C=C/c1cccs1)CCS2`, the figures for the GI50 in assay [1], in assay [2] and in assay [3] were 26.6 µM (inactive), 30.1 µM (inactive) and 30.8 µM (inactive), respectively.

In the case of `CCOP(=O)(Nc1ccc(-c2ccc(N)cc2)cc1)OCC`, the figures for the GI50 in assay [1], in assay [2] and in assay [3] were > 100 µM (inactive), 43.6 µM (inactive) and > 100 µM (inactive), respectively.

On to `ClCCCN1CCCCC1CCl` (stereo not given), for which the GI50 in assay [4] is 62.2 µM (inactive); in assay [6], > 100 µM (inactive); in assay [7] it was > 100 µM (inactive).

Take `COC(=O)CSc1nc2[nH]c(SC)c(C(N)=O)c2c(=O)n1-c1ccccc1`: in assay [3], the GI50 was > 10 µM (inactive).

As to `COc1ccc2c(n1)Sc1nc3ccccc3nc1N2`, the GI50 was 41.6 µM (inactive) in assay [1], 27.9 µM (inactive) in assay [2] and 65.2 µM (inactive) in assay [3].

On to `COc1cc2c(cc1OC)[C@@H]1[C@H](C#N)C(=O)C(C)(C)N1CC2`, for which the GI50 in assay [1], in assay [2] and in assay [3] was > 100 µM (inactive) throughout.

Regarding `COc1cc2ccc1OCc1cccc(n1)COc1ccc(cc1OC)/C=N\CCNCCNCC/N=C\2`, the values for the GI50 in assay [1], in assay [2] and in assay [3] were > 100 µM (inactive), > 100 µM (inactive) and 49 µM (inactive), respectively.

Turning to `O=C(O)c1ccc(N/C(=C(/C(Cl)=C(Cl)Cl)[N+](=O)[O-])n2nnc3ccccc32)cc1`, the GI50 in assay [1], in assay [2] and in assay [3] was > 100 µM (inactive) in each case.

`Cc1ccccc1/N=N/c1ccc(/N=N/c2c(O)ccc3ccccc23)c(C)c1` [SCARLET RED]: the GI50 in assay [1] is > 100 µM (inactive); in assay [2], 44.2 µM (inactive).

On to `C[C@]12CC[C@H]3[C@@H](CCC4=CC(=O)C=C[C@@]43O)[C@@H]1CCC2=O`, for which the GI50 in assay [1] was 55.2 µM (inactive); in assay [3] it was > 100 µM (inactive).

Turning to `CCCCn1c(C)c(C(=O)OCC)c2cc(OCc3ccc(C(=O)Nn4c(C)ccc4C)cc3)c(Br)cc21`, the GI50 in assay [1], in assay [2] and in assay [3] was > 100 µM (inactive) throughout.

For the compound `Cc1cccc2c(=O)c3cccc([C@H](C)C(=O)O)c3oc12`, the GI50 in assay [1] and in assay [2] was > 100 µM (inactive) in each case.

As to `CN(C)CC/C(=N\Nc1ccc([N+](=O)[O-])cc1)c1ccccc1`, the GI50 in assay [4] is 10.3 µM (inactive); in assay [6], 7.62 µM (inactive); in assay [5] it was 4.4 µM (inactive); in assay [7], 13.3 µM (inactive).

For `O=[N+]([O-])/C(Cl)=C(\NCCN/C(C(Cl)=C(Cl)Cl)=C(/Cl)[N+](=O)[O-])C(Cl)=C(Cl)Cl`, the results for the GI50 in assay [1] and in assay [3] were 69 µM (inactive) and 47.6 µM (inactive), respectively.

For `O=C(O)CCCCn1ccc(=O)[nH]c1=O`, the GI50 in assay [1], in assay [2] and in assay [3] was > 100 µM (inactive) each time.

For `CC1(C)CC(=O)C(CCC(=O)/C=C/c2ccccc2)C(=O)C1`, the GI50 in assay [1], in assay [2] and in assay [3] was > 100 µM (inactive) each time.

Turning to `CCC(C#N)N(Cc1cccc(CN(C(C)=O)C(C#N)CC)c1)C(C)=O` (stereo not given), the GI50 in assay [1], in assay [2] and in assay [3] was > 100 µM (inactive) in each case.

As for `O=c1cc2n(c(=O)[nH]1)C1OC(C(O)C1O)[C@@H]2CCO` (stereo not given in full), the GI50 in assay [4], in assay [5] and in assay [7] was > 100 µM (inactive) in each case.

As for `COc1cc(C2S/C(=C/c3ccccc3)C(=O)N2c2ccccn2)cc(OC)c1OC` (stereo not given), the values for the GI50 in assay [1], in assay [2] and in assay [3] were 13.9 µM (inactive), 20.2 µM (inactive) and 11.7 µM (inactive), respectively.

For the compound `COc1cc2c(/C=C3/C(=O)Nc4cccc(Cl)c43)c(Cl)[nH]c2cc1C`, the GI50 in assay [1] was 1.46 µM (inactive); in assay [2] it was 1.98 µM (inactive); in assay [3], 2.05 µM (inactive).
